test system: rat peritoneal neutrophils; assay: Inhibition of ionophore-stimulated release of free arachidonic acid from [14C]-arachidonic acid pre-labelled rat peritoneal neutrophils; assay type: cell-based; details: read-out: IC50, concentration required to inhibit by 50% compared to controls the release of radiolabelled products into supernatant liquid
Excerpt: The inhibition of ionophore-stimulated release of free arachidonic acid from [^14 C]-arachidonic acid pre-labelled rat peritoneal neutrophils was studied using modifications of the method of Ahnfelt-Ronne and Arrigoni-Martelli [Biochemical Pharmacol., (1982) Vol. 31, p. 2619]. The results below show the micromolar concentrations of test compound required to inhibit, by 50% compared to controls, the release of radiolabelled products into supernatant liquid (IC50 -μM).

IC50 [µM]	Structure (SMILES)
41	O=C(C#Cc1ccccc1)c1cn2ccccc2n1 [Example 27, (imidazo [1,2-a]pyridin-2-yl) (2-phenylethyn-1-yl) methanone]
4.4	C=C(C)C(=O)c1nc([S+]([O-])C(C)C)n(-c2ccc(CC)cc2)c1Cl (stereo not drawn) [Example 16, [5-chloro-1-(4-ethylphenyl)-2-(prop-2-ylsulfinyl)-imidazol-4-yl]-2-methyl-2-propen-1-one]
46	CCc1c(OC)nc2nc(C(=O)C#CCO)cn2c1C [Example 23, 1-(6-ethyl-7-methoxy-5-methylimidazo[1,2-a]pyrimidin-2-yl)-4-hydroxy-2-butyn-1-one]
3.8	C=C(C)C(=O)c1cn(-c2ccc(CC)cc2)c(SC)n1 [Example 6, [1-(4-ethylphenyl) 2-imidazol-4-yl] isopropenyl methanone]
2.5	C=C(C)C(=O)c1nc(SC)n(-c2ccc(CC)cc2)c1Br [Example 7, [1-(4-ethylphenyl) 5-bromo 2-thiomethylimidazol-4-yl] isopropenyl methanone]
1.7	C=CC(=O)c1nc2nc(OC)c(CC)c(C)n2c1Br [Example 5, (3-bromo 6-ethyl 7-methoxy 5-methylimidazo [1,2-a]pyrimidin-2-yl) ethenyl methanone]
7.2	C=C(C)C(=O)c1nc(SC)n(-c2ccc(OC)cc2)c1Br [Example 8, [1-(4-methoxyphenyl) 5-bromo 2-thiomethylimidazol-4-yl] isopropenyl methanone]
4.2	CCc1c(OC)nc2nc(C(=O)C#CC(C)(C)C)c(Br)n2c1C [Example 20, (3-bromo 6-ethyl 7-methoxy 5-methylimidazo [1,2-a]pyrimidin-2-yl) (3,3-dimethylbut-1-ynyl) methanone]
12	CCc1c(OC)nc2nc(C(=O)C#Cc3ccccc3)cn2c1C [Example 18, (6-ethyl 7-methoxy 5-methylimidazo [1,2-a]pyrimidin-2-yl) phenylethynyl methanone]
3.7	C=C(C)C(=O)c1nc(SC(C)C)n(-c2ccc(C)cc2)c1Br [Example 11, [1-(4-methylphenyl) 5-bromo 2-thioisopropylimidazol-4-yl] isopropenyl methanone]
7.4	C=C(C)C(=O)c1nc2nc(OC)cc(C)n2c1Br [Example 4]
15	C=C(C)C(=O)c1nc(SC)n(-c2ccc(F)cc2)c1Br [Example 12, [1-(4-fluorophenyl) 5-bromo 2-thiomethylimidazol-4-yl] isopropenyl methanone]
1.5	CCc1c(OC)nc2nc(C(=O)C#Cc3ccccc3)c(Br)n2c1C [Example 21, (3-bromo 6-ethyl 7-methoxy 5-methylimidazo [1,2-a]pyrimidin-2-yl) (2-phenylethy-1-yl) methanone]
17	C=C(C)C(=O)c1nc(SC(C)C)n(CC)c1Br [Example 15, (1-ethyl 5-bromo 2-thioisopropyl imidazol-4-yl) isopropenyl methanone]
59	CCc1c(OC)nc2nc(C(=O)C#CCO)c(Br)n2c1C [Example 22, 1-(3-bromo-6-ethyl-7-methoxy-5-methyl-imidazo[1,2-a]pyrimidin-2-yl)-4-hydroxy-2-butyn-1-one]
5.2	O=C(C#Cc1ccccc1)c1nc2ccccn2c1Br [Example 28, 3-bromoimidazo [1,2-a] pyridin-2-yl (2-phenylethyn-1-yl) methanone]
6.8	C=C(C)C(=O)c1nc2nc(SC)c(CC)c(C)n2c1Br [Example 1, 1-(3-bromo-6-ethyl-5-methyl-7-methylthio-imidazo[1,2-a]pyrimidin-2-yl)-2-methyl-2-propen-1-one]
7.2	CC#CC(=O)c1nc2nc(OC)c(CC)c(C)n2c1Br [Example 24, (3-bromo 6-ethyl 7-methoxy 5-methylimidazo [1,2-a]pyrimidin-2-yl) (propyn-1-ynyl) methanone]
21	C=C(C)C(=O)c1nc2nc(OC)c(CC)c(C)n2c1Cl [Example 3, (3-chloro 6-ethyl 7-methoxy 5-methylimidazo [1,2-a]pyrimidin-2-yl) isopropenyl methanone]
> 100	C=C(C)C(=O)c1cn2ccccc2n1 [Example 26, (imidazo [1,2-a]pyridin-2-yl) isopropenyl methanone]
17	C=C(C)C(=O)c1nc2nc(OC)c(CC)c(C)n2c1Br [Example 2, (3-bromo 6-ethyl 7-methoxy 5-methylimidazo [1,2-a]pyrimidin-2-yl) isopropenyl methanone]
10	C=C(C)C(=O)c1nc(SC)n(-c2ccc(C)cc2)c1Br [Example 10, [1-(4-methylphenyl) 5-bromo 2-thiomethylimidazol-4-yl] isopropenyl methanone]
9.1	C=C(C)C(=O)c1nc(SC)n(-c2ccc(OC)cc2)c1Cl [Example 9, [1-(4-methoxyphenyl) 5-chloro 2-thiomethylimidazol-4-yl] isopropenyl methanone]
16	CCc1c(OC)nc2nc(C(=O)C#CC(C)(C)C)cn2c1C [Example 19, 1-(6-ethyl 7-methoxy 5-methylimidazo [1,2-a]pyrimidin-2-yl) (3,3-dimethylbut-1-ynyl) methanone]
28	C=C(C)C(=O)c1nc2ccccn2c1Br [Example 25, (3-bromoimidazo [1,2-a]pyridin-2-yl) isopropenyl methanone (chlorhydrate)]
> 10	C=C(C)C(=O)c1nc(SC)n(-c2ccc(O)cc2)c1Br [Example 14, [5-bromo-1-(4-hydroxyphenyl)-2-methylthioimidazol-4-yl]-2-methyl-2-propen-1-one]
2.3	C=CC(=O)c1nc(SC)n(-c2ccc(OC)cc2)c1Br [Example 13, [1-(4-methoxyphenyl) 5-bromo 2-thiomethylimidazol-4-yl] ethenyl methanone]
